Legend:
[1] = Cytotoxicity against human UACC62 cells assessed as growth inhibition at 10 uM after 48 hrs by SRB assay; type: functional; conditions: UACC-62, 48 h, read-out: GI
A498 [2] = assay: Cytotoxicity against human A498 cells assessed as growth level at 10 uM after 48 hrs by SRB assay; type: functional
MDA-MB-468 = assay: Cytotoxicity against human MDA-MB-468 cells assessed as growth inhibition at 10 uM after 48 hrs by SRB assay; type: functional; conditions: MDA-MB-468, 48 h, read-out: GI
NCI-H226 = assay: Cytotoxicity against human NCI-H226 cells assessed as growth inhibition at 10 uM after 48 hrs by SRB assay; type: functional; conditions: NCI-H226, 48 h, read-out: GI
EKVX = assay: Cytotoxicity against human EKVX cells assessed as growth level at 10 uM after 48 hrs by SRB assay; type: functional
SR [3] = assay: Cytotoxicity against human SR cells assessed as growth level at 10 uM after 48 hrs by SRB assay; type: functional
HT-29 = assay: Cytotoxicity against human HT-29 cells assessed as growth inhibition at 10 uM after 48 hrs by SRB assay; type: functional; conditions: HT-29, 48 h, read-out: GI
[4] = Cytotoxicity against human UO31 cells assessed as growth inhibition at 10 uM after 48 hrs by SRB assay; type: functional; conditions: UO-31, 48 h, read-out: GI
A498 [5] = assay: Cytotoxicity against human A498 cells assessed as growth inhibition at 10 uM after 48 hrs by SRB assay; type: functional; conditions: A498, 48 h, read-out: GI
[6] = Cytotoxicity against human HL-60(TB) cells assessed as growth level at 10 uM after 48 hrs by SRB assay; type: functional
[7] = Cytotoxicity against human UACC62 cells assessed as growth level at 10 uM after 48 hrs by SRB assay; type: functional, UACC-62
SR [8] = assay: Cytotoxicity against human SR cells assessed as growth inhibition at 10 uM after 48 hrs by SRB assay; type: functional; conditions: read-out: GI
Malme-3M [9] = assay: Cytotoxicity against human MALME-3M cells assessed as growth level at 10 uM after 48 hrs by SRB assay; type: functional
[10] = Cytotoxicity against human HCT116 cells assessed as growth inhibition at 10 uM after 48 hrs by SRB assay; type: functional; conditions: HCT-116, 48 h, read-out: GI
786-0 = assay: Cytotoxicity against human 786-0 cells assessed as growth inhibition at 10 uM after 48 hrs by SRB assay; type: functional; conditions: 786-0, 48 h, read-out: GI
[11] = Cytotoxicity against human Caki1 cells assessed as growth level at 10 uM after 48 hrs by SRB assay; type: functional, CAKI-1
[12] = Cytotoxicity against human SNB75 cells assessed as growth level at 10 uM after 48 hrs by SRB assay; type: functional, SNB-75
[13] = Cytotoxicity against human OVCAR3 cells assessed as growth level at 10 uM after 48 hrs by SRB assay; type: functional, OVCAR-3
KM12 = assay: Cytotoxicity against human KM12 cells assessed as growth inhibition at 10 uM after 48 hrs by SRB assay; type: functional; conditions: KM12, 48 h, read-out: GI
[14] = Cytotoxicity against human LOXIMVI cells assessed as growth level at 10 uM after 48 hrs by SRB assay; type: functional, LOX IMVI
[15] = Cytotoxicity against human OVCAR5 cells assessed as growth level at 10 uM after 48 hrs by SRB assay; type: functional, OVCAR-5
[16] = Cytotoxicity against human HCC2998 cells assessed as growth level at 10 uM after 48 hrs by SRB assay; type: functional, HCC 2998
[17] = Cytotoxicity against human SF295 cells assessed as growth inhibition at 10 uM after 48 hrs by SRB assay; type: functional; conditions: SF-295, 48 h, read-out: GI
NCI-H522 = assay: Cytotoxicity against human NCI-H522 cells assessed as growth inhibition at 10 uM after 48 hrs by SRB assay; type: functional; conditions: NCI-H522, 48 h, read-out: GI
[18] = Cytotoxicity against human OVCAR3 cells assessed as growth inhibition at 10 uM after 48 hrs by SRB assay; type: functional; conditions: OVCAR-3, 48 h, read-out: GI
[19] = Cytotoxicity against human IGROV1 cells assessed as growth level at 10 uM after 48 hrs by SRB assay; type: functional, IGROV-1
NCI-H460 = assay: Cytotoxicity against human NCI-H460 cells assessed as growth inhibition at 10 uM after 48 hrs by SRB assay; type: functional; conditions: NCI-H460, 48 h, read-out: GI
[20] = Cytotoxicity against human SF295 cells assessed as growth level at 10 uM after 48 hrs by SRB assay; type: functional, SF-295
[21] = Cytotoxicity against human SF539 cells assessed as growth inhibition at 10 uM after 48 hrs by SRB assay; type: functional; conditions: SF-539, 48 h, read-out: GI
[22] = Cytotoxicity against human HCC2998 cells assessed as growth inhibition at 10 uM after 48 hrs by SRB assay; type: functional; conditions: HCC 2998, 48 h, read-out: GI
[23] = Cytotoxicity against human HOP62 cells assessed as growth level at 10 uM after 48 hrs by SRB assay; type: functional, HOP-62
Malme-3M [24] = assay: Cytotoxicity against human MALME-3M cells assessed as growth inhibition at 10 uM after 48 hrs by SRB assay; type: functional; conditions: read-out: GI
[25] = Cytotoxicity against human Hs578T cells assessed as growth inhibition at 10 uM after 48 hrs by SRB assay; type: functional; conditions: Hs-578T, read-out: GI
[26] = Cytotoxicity against human MOLT4 cells assessed as growth level at 10 uM after 48 hrs by SRB assay; type: functional, MOLT-4
ACHN [27] = assay: Cytotoxicity against human ACHN cells assessed as growth inhibition at 10 uM after 48 hrs by SRB assay; type: functional; conditions: read-out: GI
[28] = Cytotoxicity against human PC3 cells assessed as growth level at 10 uM after 48 hrs by SRB assay; type: functional, PC-3
NCI-H322M = assay: Cytotoxicity against human NCI-H322M cells assessed as growth level at 10 uM after 48 hrs by SRB assay; type: functional
ACHN [29] = assay: Cytotoxicity against human ACHN cells assessed as growth level at 10 uM after 48 hrs by SRB assay; type: functional
[30] = Cytotoxicity against human HOP62 cells assessed as growth inhibition at 10 uM after 48 hrs by SRB assay; type: functional; conditions: HOP-62, 48 h, read-out: GI
[31] = Cytotoxicity against human DU145 cells assessed as growth inhibition at 10 uM after 48 hrs by SRB assay; type: functional; conditions: DU-145, 48 h, read-out: GI
SN12C = assay: Cytotoxicity against human SN12C cells assessed as growth level at 10 uM after 48 hrs by SRB assay; type: functional
NCI-H23 = assay: Cytotoxicity against human NCI-H23 cells assessed as growth level at 10 uM after 48 hrs by SRB assay; type: functional
[32] = Cytotoxicity against human OVCAR4 cells assessed as growth inhibition at 10 uM after 48 hrs by SRB assay; type: functional; conditions: OVCAR-4, 48 h, read-out: GI
[33] = Cytotoxicity against human SKOV3 cells assessed as growth inhibition at 10 uM after 48 hrs by SRB assay; type: functional; conditions: SK-OV-3, 48 h, read-out: GI

In the case of `C=C1CC[C@@H]2[C@](C)(COC(C)=O)[C@H](OC(C)=O)CC[C@@]2(C)[C@@H]1CC(NC1CCCC1)C1=CCOC1=O` (some centres undefined), the inhibition of growth at 10 µM [1] is reported as 34.4%, the Activity (A498 [2]) is reported as 68% and the inhibition of growth at 10 µM (MDA-MB-468) is reported as 65.3%. For the same compound, the inhibition of growth at 10 µM (NCI-H226) was 15.5%, the Activity (EKVX) was 52.44% and the Activity (SR [3]) was 19.62%. The inhibition of growth at 10 µM (HT-29) was 24.5%, the inhibition of growth at 10 µM [4] was 43.9% and the inhibition of growth at 10 µM (A498 [5]) was 32%. For the same compound, the Activity [6] was 42.67%, the Activity [7] was 65.59% and the inhibition of growth at 10 µM (SR [8]) was 80.4%. For the same compound, the Activity (Malme-3M [9]) was 84.55%, the inhibition of growth at 10 µM [10] was 55.3% and the inhibition of growth at 10 µM (786-0) was 7.49%. For the same compound, the Activity [11] was 60.7%, the Activity [12] was 68.03% and the Activity [13] was 68.98%. The inhibition of growth at 10 µM (KM12) was 25.5%, the Activity [14] was 68.48% and the Activity [15] was 105.62%. It also gave an Activity [16] of 90.35%, an inhibition of growth at 10 µM [17] of 9.61% and an inhibition of growth at 10 µM (NCI-H522) of 54.4%. The inhibition of growth at 10 µM [18] was 31%, the Activity [19] was 88.25% and the inhibition of growth at 10 µM (NCI-H460) was 25.2%. It also gave an Activity [20] of 90.39%, an inhibition of growth at 10 µM [21] of 10.6% and an inhibition of growth at 10 µM [22] of 9.65%. The Activity [23] was 94.41%, the inhibition of growth at 10 µM (Malme-3M [24]) was 15.4% and the inhibition of growth at 10 µM [25] was 25.1%. It also gave an Activity [26] of 42.41%, an inhibition of growth at 10 µM (ACHN [27]) of 21.5% and an Activity [28] of 44.7%. It also gave an Activity (NCI-H322M) of 101.16%, an Activity (ACHN [29]) of 78.47% and an inhibition of growth at 10 µM [30] of 5.59%. It also gave an inhibition of growth at 10 µM [31] of 8.04%, an Activity (SN12C) of 78.46% and an Activity (NCI-H23) of 62.53%. The inhibition of growth at 10 µM [32] was 41.6% and the inhibition of growth at 10 µM [33] was 12.1%.
